Experimental findings from article PMC12040169 (PLOS Biology, 2025) are described below.

Each structure is given as a SMILES string.

A short description of the first data set: in vitro. The conditions noted are these: human, hela cells, % viability.
Broadly, the viability is a read-out of living cells in per cent, often relative to untreated cells. Turning to `CN1CCN(C(=O)CN(CC(=O)N2CCN(C)CC2)S(=O)(=O)c2ccc(Cl)cc2)CC1` [CBK269627], the viability at 28.5 h, 10 µM was 96.6%.

Consider `COc1ccc(-c2oc3ccccc3c(=O)c2OCC(=O)O)cc1` [CBK269232], for which the viability at 28.5 h, 10 µM amounted to 98.7%.

For `COc1ccc(Cl)cc1NC(=O)CN(C1CCCCC1)S(=O)(=O)c1ccccc1` [CBK265159], the viability at 28.5 h, 10 µM worked out at 108%.

As to `Cc1ccc(S(=O)(=O)Nc2nnc(C)s2)cc1` [CBK045486], the viability at 28.5 h, 10 µM stood at 92.5%.

As to `CC(=O)Nc1cccc(-n2cnnc2SCC2CCOCC2)c1` [CBK306354], the viability at 28.5 h, 10 µM was 92%.

Take `O=C(NCCNc1cnccn1)c1cccc(Cl)c1Cl` [CBK305727]: the viability at 28.5 h, 10 µM was found to be 84.9%.

Take `CC(=O)N1CC2(CCN(C(=O)c3ccco3)CC2)Nc2ccccc21` [CBK284447]: the viability at 28.5 h, 10 µM turned out to be 95.5%.

With `COc1cc(CN2C[C@@H](c3ccccc3)[C@@H]3NC(=O)CCCC[C@H]32)cc(OC)c1` [CBK285646], the viability at 28.5 h, 10 µM stood at 89.6%.

Regarding `CCc1nc2ccc(C(=O)Nc3ccc4c(c3)OCC(=O)N4)cn2c1N(C)CC` [CBK145521], the viability at 28.5 h, 10 µM amounted to 96.8%.

In the case of `O=C(O)c1ccc(NC(=O)c2cnccn2)cc1` [CBK268110], the viability at 28.5 h, 10 µM came to 94%.

On to `CN(C(=O)c1ccc2c(c1)NC(=O)CS2)c1ccccc1` [CBK296612], for which the viability at 28.5 h, 10 µM came to 105%.

Consider `CC(C)C(CNCc1ccsc1)c1ccnn1C` (stereo not shown) [CBK304821], for which the viability at 28.5 h, 10 µM came to 93.9%.

Consider `CC(=O)Nc1cccc(CNC(=O)c2cccnc2OCC(F)(F)F)c1` [CBK304557], for which the viability at 28.5 h, 10 µM is 87.2%.

With `COc1ccccc1C(C)CN(C)C` (stereo not shown) [CBK011948C], the viability at 28.5 h, 10 µM was determined as 91.2%.

For `COc1ccc(Oc2nccnc2N2CCN(CCc3ccccn3)CC2)cc1OC` [CBK083067T], the viability at 28.5 h, 10 µM is 93.2%.

Consider `COc1cc(-c2nc(C(C)=O)c(C)n2O)cc(OC)c1OC` [CBK270083], for which the viability at 28.5 h, 10 µM was found to be 95.6%.

Turning to `O=C(Cn1ccnc1)NC(c1ccc(Cl)cc1)c1cccnc1` (stereo not shown) [CBK281481], the viability at 28.5 h, 10 µM was found to be 99.2%.

Take `Cc1ccc2c(c1)C(=O)NCC1(CCN(C(=O)C3CC3)CC1)O2` [CBK284835]: the viability at 28.5 h, 10 µM is 108%.

On to `COc1ccc(C(=O)CCCN2CC3CCC(NC(=O)Nc4ccc(F)c(F)c4)CC3C2)cc1` (stereo not shown) [CBK083514T], for which the viability at 28.5 h, 10 µM turned out to be 109%.

As for `O=C(O)/C=C/c1cccc(NS(=O)(=O)c2ccc(C(=O)O)cc2)c1` [CBK262262], the viability at 28.5 h, 10 µM worked out at 88%.

On to `Cn1c(=S)[nH]c2c(-c3ccccc3)c[nH]c2c1=O` [CBK288488], for which the viability at 28.5 h, 10 µM came to 103%.

In the case of `CC(NC(=O)/C(=C\c1ccc(Cl)cc1)NC(=O)c1ccccc1Br)C(=O)O` (stereo not shown) [CBK264582], the viability at 28.5 h, 10 µM came to 91.4%.

Regarding `CN(C)Cc1nc2c([nH]1)c(=O)n(C)c(=O)n2C` [CBK140662], the viability at 28.5 h, 10 µM stood at 99.8%.

As to `O=C(c1nc(SCc2ccccc2)ncc1Cl)N1CCN(c2cccc(Cl)c2)CC1` [CBK268712], the viability at 28.5 h, 10 µM was 113%.

In the case of `CCOc1ccccc1-c1noc(CSc2nnc(-c3ccncc3)n2-c2cccc(C)c2)n1` [CBK269076], the viability at 28.5 h, 10 µM came to 104%.

Regarding `COC(=O)c1sc(N2CCCC2)c(S(=O)(=O)C(C)C)c1N` [CBK009463], the viability at 28.5 h, 10 µM was determined as 87.9%.

For `COC(=O)/C=C/c1cccc(-c2cnc(N)c(-c3ccc(O)cc3)n2)c1` [CBK125689], the viability at 28.5 h, 10 µM was 83.7%.

Turning to `O=C(NC1(c2ccccc2)CC1)c1cccc(-n2cnnc2)c1` [CBK282779], the viability at 28.5 h, 10 µM came out at 99.1%.

`Cc1ccc(CN2CCCN(C(=O)Cn3nc4ccccn4c3=O)CC2)cc1` [CBK297768]: the viability at 28.5 h, 10 µM turned out to be 79.7%.

For `O=C(CN1C(=O)c2ccccc2C1=O)Nc1cccc2ncccc12` [CBK262761], the viability at 28.5 h, 10 µM worked out at 84%.

Regarding `CC(C)(C)c1ccc(S(=O)(=O)N2CCCC[C@H]2COC(=O)CCC(=O)O)cc1` [CBK200063], the viability at 28.5 h, 10 µM was determined as 117%.

For the molecule `CC12CCCC(=O)N1C(CO)C(c1ccccc1)O2` (stereo not shown) [CBK011013], the viability at 28.5 h, 10 µM was 91.2%.

On to `O=C(O)C1C2C=CC(C2)C1C(=O)N1CCN(Cc2ccccc2Cl)CC1` (stereo not shown) [CBK270334], for which the viability at 28.5 h, 10 µM amounted to 93%.

On to `NC(=O)c1ccccc1NC(=O)CSc1nc(N)cc(N)n1` [CBK267983], for which the viability at 28.5 h, 10 µM turned out to be 115%.

Turning to `Cc1cccc(C(C)CNC(=O)N2CCC(Cc3cnn(C)c3)C2)c1` (stereo not shown) [CBK305301], the viability at 28.5 h, 10 µM was 96.9%.

In the case of `Cn1c(NCc2ccccn2)nc2ccccc21` [CBK268544], the viability at 28.5 h, 10 µM was determined as 110%.

On to `Cc1ccc(S(=O)(=O)NCCNc2ccc(C(F)(F)F)cc2[N+](=O)[O-])cc1` [CBK264945], for which the viability at 28.5 h, 10 µM is 90.4%.

On to `COc1ccc2[nH]cc(CCNC(=O)COc3ccc(O)cc3)c2c1` [CBK116227], for which the viability at 28.5 h, 10 µM was 82%.

Regarding `CN1CCN(c2ccc(NC(=S)NC(=O)c3cc(Br)ccc3Cl)cc2)CC1` [CBK266254C], the viability at 28.5 h, 10 µM is 96.2%.

As to `O=[N+]([O-])c1ccc(CN2CCC(Oc3cncc(OCc4cccnc4)n3)C2)cc1` (stereo not shown) [CBK084456], the viability at 28.5 h, 10 µM was determined as 91.6%.

Consider `CC(C)(C)OC(=O)NCc1ccc(CNCc2ccccc2Br)cc1` [CBK056701], for which the viability at 28.5 h, 10 µM was determined as 96.6%.

Consider `Fc1ccc(-c2c[nH]nc2C2CCOCC2)cc1` [CBK283464], for which the viability at 28.5 h, 10 µM was 103%.

On to `Cc1ccc(CCC(=O)N(CCC#N)C2CCOCC2)c(C)c1` [CBK305809], for which the viability at 28.5 h, 10 µM is 87.4%.

Turning to `O=C(c1cnccc1C(F)(F)F)N1CCc2ccccc21` [CBK200401], the viability at 28.5 h, 10 µM worked out at 112%.

As to `O=C(c1cncnc1)N1CCC2(CCCNC2)C1` (stereo not shown) [CBK153237C], the viability at 28.5 h, 10 µM came out at 89.7%.

As for `CC(=O)NC1(c2ccccc2F)CCN(c2ncc(-c3ccco3)c(-c3ccco3)n2)CC1` [CBK286428], the viability at 28.5 h, 10 µM turned out to be 95.3%.

Consider `c1ccc(-c2nc(C3CCNCC3)n3ccncc23)cc1` [CBK035434], for which the viability at 28.5 h, 10 µM is 100%.

For `O=C(CSc1nc2ccccc2c2nc3ccccc3n12)Nc1ccc(Cl)cc1F` [CBK268098], the viability at 28.5 h, 10 µM turned out to be 115%.

For the molecule `CN1CC(=O)N2CCOC(C2)c2cccc(n2)NC(=O)C/C=C/CC2(CCN(c3ncccn3)CC2)C1=O` (stereo not shown) [CBK292188], the viability at 28.5 h, 10 µM was 95.2%.

With `COC(=O)c1cc(C#N)c(=O)n(CC(O)COCc2ccco2)c1` (stereo not shown) [CBK305718], the viability at 28.5 h, 10 µM amounted to 94.7%.

For the molecule `Nc1cccc(-c2cn(C[C@H]3CC4CCN3C[C@@H]4C(=O)NCc3cccnc3)nn2)c1` (stereo partly shown) [CBK289088], the viability at 28.5 h, 10 µM is 84.3%.

Take `Cc1cccc(-c2ccc3c(c2)C(=O)N2CC[C@H](NC(=O)NC(C)C)C[C@H]2C(=O)N3)c1C` [CBK289567]: the viability at 28.5 h, 10 µM turned out to be 97.9%.

For `O=C(Nc1ccc(S(=O)(=O)N2CCCCC2)cc1)c1ccc(CN2CCc3ccccc3C2)cc1` [CBK263993], the viability at 28.5 h, 10 µM is 90.7%.

On to `Cc1nc(C)n(CCc2nc3ccccc3[nH]2)n1` [CBK269364], for which the viability at 28.5 h, 10 µM amounted to 105%.

Regarding `CC(=O)Nc1cccc(NC(=O)CSc2ccc(C(F)(F)F)cc2[N+](=O)[O-])c1` [CBK264758], the viability at 28.5 h, 10 µM came out at 103%.

`Cc1noc(C2=CC=CN3C2=NNC32CCNCC2)n1` [CBK288058]: the viability at 28.5 h, 10 µM was determined as 91%.

As to `O=c1scnn1Cc1nc(-c2ccsc2)no1` [CBK306438], the viability at 28.5 h, 10 µM was determined as 83.4%.

For the molecule `COc1ccc(C(C)C)cc1-c1cnc2[nH]c(=O)n([C@H](C)c3ccccc3)c2n1` [CBK064181], the viability at 28.5 h, 10 µM came out at 87.3%.

For `O=C(O)COc1ccc(N2C(=O)c3ccc(Oc4cccc([N+](=O)[O-])c4)cc3C2=O)cc1` [CBK264259], the viability at 28.5 h, 10 µM is 107%.

As to `COc1ccc(Nc2cc(Cl)ccc2C(=O)N2CCN(c3ncccn3)CC2)cn1` [CBK107334], the viability at 28.5 h, 10 µM amounted to 89.9%.

For `O=C(NCC1(O)CCSC1)c1c[nH]nc1-c1cc2ccccc2o1` (stereo not shown) [CBK306159], the viability at 28.5 h, 10 µM was determined as 88.3%.

Regarding `O=C(N[C@H]1C[C@H]2C(=O)NC[C@@H](CCC(=O)N3CCOCC3)N2C1)c1cccs1` [CBK289009], the viability at 28.5 h, 10 µM came to 92%.

For the molecule `COc1ccc(-c2cc(C(=O)NCCc3ccncc3)cnc2-c2ccc(F)cc2)cc1` [CBK037434], the viability at 28.5 h, 10 µM turned out to be 91.5%.

As to `CC(NC(=O)C1CCN(C2Cc3ccccc3C2)CC1)c1ccccc1` (stereo not shown) [CBK148031], the viability at 28.5 h, 10 µM was 95.7%.

For `Cc1ccc(C(Cn2cncc2-c2cn(C)nc2C)N(C)C)cc1` (stereo not shown) [CBK281896], the viability at 28.5 h, 10 µM was 98.7%.

As to `NC(=O)c1cc(Cc2ccccc2)sc1NC(=O)c1cccnc1` [CBK268168], the viability at 28.5 h, 10 µM was 96.2%.

For the molecule `COc1ccccc1NC(=O)CNC(=O)c1ccc([N+](=O)[O-])cc1` [CBK268657], the viability at 28.5 h, 10 µM turned out to be 91.9%.

Regarding `Cn1sc(=O)c2cc(S(=O)(=O)NC3CC3)ccc21` [CBK009163], the viability at 28.5 h, 10 µM worked out at 86%.

Take `CC(C)(C)c1ccc(Oc2ccc(NC(=O)CCCC(=O)O)cc2)cc1` [CBK264339]: the viability at 28.5 h, 10 µM was found to be 103%.

Consider `Cc1cc2ccnc(Cl)c2n1CC1(O)CC2CCC(C1)N2` (stereo not shown) [CBK284980], for which the viability at 28.5 h, 10 µM is 95%.

Consider `CC(C)OCC(=O)NC1CCCc2nc(N3CCC(CO)CC3)ncc21` (stereo not shown) [CBK307520], for which the viability at 28.5 h, 10 µM was determined as 94.5%.

As for `Nc1ccc2ccc(-c3ccccc3)nc2n1` [CBK061865], the viability at 28.5 h, 10 µM is 97%.

On to `O=C(O)c1c(NS(=O)(=O)Cc2ccccc2[N+](=O)[O-])sc2c1CCCC2` [CBK024819], for which the viability at 28.5 h, 10 µM was 106%.

With `CCOc1ccc(NC(=O)C2C3c4ccccc4C(c4ccccc43)C2C(=O)O)cc1` (stereo not shown) [CBK261544], the viability at 28.5 h, 10 µM is 102%.

`CCOc1ccc(Nc2cc(Cl)nc(N)n2)cc1` [CBK288069]: the viability at 28.5 h, 10 µM turned out to be 98.7%.

On to `Cc1ccccc1-n1ncc2c(N3CCCC3)ncnc21` [CBK287648], for which the viability at 28.5 h, 10 µM was 99.2%.

For `COc1cccc(C2=NO[C@@](CC(=O)O)(C(=O)NCc3ccccc3)C2)c1OC` [CBK286641], the viability at 28.5 h, 10 µM worked out at 83.4%.

The same data set, now with this note: human, hela cells, % viability, bulk resorufin, single well.
As to `CC(C)C(=O)N1CCC2(CC1)OCc1cc(Cl)ccc1O2` [CBK061121], the viability at 28.5 h, 10 µM was determined as 89.6%.

For `COc1ccccc1NC(=O)N1CCC2(CC1)OCc1cc(-c3ccccc3)ccc1O2` [CBK060599], the viability at 28.5 h, 10 µM worked out at 109%.
